# According to patent US11999750B2, “Crystalline forms of (S)-5-benzyl-N-(5-methyl-4-oxo-2,3,4,5-tetrahydropyrido [3,2-B][1,4]oxazepin-3-yl)-4H-1,2,4-triazole-3-carboxamide” (Denali Therapeutics Inc., priority 2022, dated 2024):
# Entries after “also recorded” stand apart in the source; their conditions may differ.
# Key:
# Format in all cases: physicochemical
# [1] = Slurry competition experiments (inter-conversion study of crystal forms); conditions: for Thermodynamic stability relationship / conversion in slurry: slurry in H2O and n-Heptane for 2 days, RT and 70° C.
# Method: To understand the thermodynamic stability relationship between Form A, B and C, slurry competition experiments in H2O and n-Heptane were performed at RT and 70° C. Prior to the study, the starting material (Form A of Compound (I)) was used to saturate the corresponding solvent at RT and 70° C. before filtered to obtain a near-saturated solution. Equal amounts (˜ 5 mg) of Form A, Form B and Form C were weighed and then added to 0.3 mL of the prepared solution to form a new suspension, which was stirred magnetically (˜1000 rpm) at RT/70° C. for about 2 days.
# [2] = Physical and chemical stability on storage (XRPD and HPLC); conditions: 40° C./75% RH; 25° C./60% RH; 60° C.; two and four weeks
# Method: To evaluate the physical and chemical stability, Form A, Form B, and Form C were stored in 3 conditions (40° C./75% RH; 25° C./60% RH; and 60° C.) for two and four weeks. All samples were characterized using XRPD and HPLC.
# [3] = Kinetic solubility in bio-relevant media (SGF, FaSSIF, FeSSIF) and H2O at 37° C.; conditions: for solubility at 24 h / solubility at 4 h: 37 °C, thermodynamic from solid; for Form change after kinetic solubility test: bio-relevant media or H2O, XRPD of residual solids
# Method: Kinetic solubility tests of Form A, Form B, and Form C was performed in bio-relevant media (SGF, FaSSIF and FeSSIF) and H2O at 37° C. Solids were suspended into FaSSIF, FeSSIF, SGF and H2O with target conc. of ˜10 mg/mL. The suspensions were agitated on a rolling incubator at 25 rpm (in the incubator set at 37° C.) for 1, 4 and 24 hrs. At each time point, 1 mL of the suspension was pipetted out for centrifugation at 25000 rpm (3 min) and filtration through 0.45 μm membrane to obtain supernatant for HPLC solubility and pH tests. The residual solids were analyzed by XRPD. […] The solubility of Form A/B/C was summarized from Table 22-24.
# [4] = Dynamic Vapor Sorption (DVS); conditions: for Weight gain by DVS: 0 percent to 95 percent relative humidity; for Weight gain by DVS / Hygroscopicity: about 25 degrees centigrade; for Form change after DVS test: XRPD after DVS, 25° C., 0 to 95% RH; for Hygroscopicity: no hygroscopicity = weight gain less than 0.2 weight percent, 0 to 95 percent RH
# Method: DVS was measured via a SMS (Surface Measurement Systems) DVS Intrinsic. The relative humidity at 25° C. were calibrated against deliquescence point of LiCl, Mg(NO3)2 and KCl. To investigate the solid form stability as a function of humidity, DVS isotherm plots of Form A, Form B, and Form C were collected at 25° C. between 0 and 95% RH. […] As determined by Dynamic Vapor Sorption (DVS) in the range of from 0 percent to 95 percent relative humidity at a temperature of about 25 degrees centigrade (plus or minus 0.2 degrees C.), the crystalline Form A, Form B, and Form C of Compound (I) show a weight gain of about 0.09 weight percent, 0.07 weight percent, and 5.7 weight percent, respectively.
# [5] = Equilibrium solubility in pH buffers, residual solid by XRPD; conditions: 8 pH buffers (pH 1.0-8.0), RT, 24 hrs, XRPD of residual solids
# Method: Equilibrium solubility of Form B was measured in 8 pH buffers (i.e., pH 1.0, 2.0, 3.0, 4.0, 5.0, 6.0, 7.0, 8.0) at RT for 24 hrs. Solids were suspended into pH buffers with target conc. of ˜10 mg/mL. The suspensions were slurried at RT for 24 hrs (1000 rpm), prior to centrifugation at 20000 rpm (2 min), and filtration through 0.45 μm membrane to obtain supernatant for HPLC solubility and pH tests. The residual solids were analyzed by XRPD.
# [6] = Form identification by heating to 100° C. and cooling to RT (XRPD comparison)
# Method: A weight loss of 5.7% up to 100° C. was observed on the TGA curve for Form C prepared by evaporation. […] (peak temperature) and 124.9° C. (onset temperature). […] (peak temperature) and 127.0° C. (onset temperature) were observed on the DSC curve. For form identification, variable-temperature XRPD (VT-XRPD) was performed for Form C. […] Considering the large TGA weight loss and no XRPD change after removal of water/solvent (VT-XRPD). Single crystal structure determination confirmed that Form C is a channel hydrate (without form change after dehydration).
# A two-stage weight loss of 3.8% up to 85° C. and 11.5% from 85° C. to 120° C. was observed on the TGA curve. […] For form identification, Form D was heated to 100° C. and cooled to RT. […] According to the results, Form D was characterized to be an IPA solvate.
# [7] = Exposure to ambient condition (XRPD comparison)
# Text: Therefore, TGA and DSC characterizations were not performed for Form E. According to the single crystal structure determination results, Form E is a DCM solvate.
SMILES,Thermodynamic stability relationship / conversion in slurry [1],Form change on storage (XRPD) [2],HPLC purity change on storage [2],"Solubility ([3]; FeSSIF (pH 5.0), 1 hr)","Solubility ([3]; H2O (pH 6.5), 1 hr)",Form change after kinetic solubility test [3],Weight gain by DVS [4],Form change after DVS test [4],Hygroscopicity [4],"Solubility ([3]; FaSSIF (pH 6.5), 1 hr)","Solubility ([3]; FaSSIF (pH 6.5), 4 hr)","Solubility ([3]; FaSSIF (pH 6.5), 24 hr)","Solubility ([3]; FeSSIF (pH 5.0), 4 hr)","Solubility ([3]; FeSSIF (pH 5.0), 24 hr)","Solubility ([3]; H2O (pH 6.5), 4 hr)","Solubility ([3]; H2O (pH 6.5), 24 hr)","Solubility ([3]; SGF (pH 1.8), 1 hr)","Solubility ([3]; SGF (pH 1.8), 4 hr)","Solubility ([3]; SGF (pH 1.8), 24 hr)",Form change after heating to 100° C. and cooling to RT [6],other results
CN1C(=O)[C@@H](NC(=O)c2nnc(Cc3ccccc3)[nH]2)COc2cccnc21 [Form A + B + C],–,–,–,–,–,–,–,–,–,–,–,–,–,–,–,–,–,–,–,–,"Crystal form after slurry competition ([1]; H2O or n-Heptane, RT or 70° C., about 2 days (experiments 1-4, merged cell)): Form B"
"CN1C(=O)[C@@H](NC(=O)c2nnc(Cc3ccccc3)[nH]2)COc2cccnc21 [Form A, (S)-5-benzyl-N-(5-methyl-4-oxo-2,3,4,5-tetrahydropyrido [3,2-b][1,4]oxazepin-3-yl)-4H-1,2,4-triazole-3-carboxamide]",converted to Form B,no observable form change,no noticeable HPLC purity change,120 µg/mL,80 µg/mL,No form change,about 0.09 weight percent,no form change,no hygroscopicity; also recorded: less hygroscopic,–,–,–,–,–,–,–,–,–,–,–,"solubility at 24 h ([3]; FaSSIF, pH 6.5, fassif, FaSSIF (pH 6.5), 24 hr): 100 µg/mL; solubility at 4 h ([3]; FeSSIF, pH 5, fessif, FeSSIF (pH 5.0), 4 hr): 120 µg/mL; solubility at 24 h ([3]; FeSSIF, pH 5, fessif, FeSSIF (pH 5.0), 24 hr): 120 µg/mL; solubility at 4 h ([3]; SGF, pH 1.8, simulated gastric fluid, SGF (pH 1.8), 4 hr): 100 µg/mL; solubility at 24 h ([3]; SGF, pH 1.8, simulated gastric fluid, SGF (pH 1.8), 24 hr): 100 µg/mL; solubility at 4 h ([3]; water, pH 6.5, water, H2O (pH 6.5), 4 hr): 90 µg/mL; solubility at 24 h ([3]; water, pH 6.5, water, H2O (pH 6.5), 24 hr): 90 µg/mL"
"CN1C(=O)[C@@H](NC(=O)c2nnc(Cc3ccccc3)[nH]2)COc2cccnc21 [Form B, (S)-5-benzyl-N-(5-methyl-4-oxo-2,3,4,5-tetrahydropyrido [3,2-b][1,4]oxazepin-3-yl)-4H-1,2,4-triazole-3-carboxamide]",thermodynamically more stable,no observable form change,no noticeable HPLC purity change,100 µg/mL,70 µg/mL,No form change,~0.07 weight percent,no form change,less hygroscopic; also recorded: no hygroscopicity; also recorded: not hygroscopic,80 µg/mL,90 µg/mL,90 µg/mL,110 µg/mL,100 µg/mL,70 µg/mL,70 µg/mL,80 µg/mL,80 µg/mL,80 µg/mL,–,Form change after equilibrium solubility evaluation [5]: No form change
"CN1C(=O)[C@@H](NC(=O)c2nnc(Cc3ccccc3)[nH]2)COc2cccnc21 [Form C, (S)-5-benzyl-N-(5-methyl-4-oxo-2,3,4,5-tetrahydropyrido [3,2-b][1,4]oxazepin-3-yl)-4H-1,2,4-triazole-3-carboxamide]",converted to Form B,no observable form change,no noticeable HPLC purity change,970 µg/mL,440 µg/mL,converted to Form A,~5.7 weight percent,no form change,–,860 µg/mL,730 µg/mL,150 µg/mL,150 µg/mL,170 µg/mL,100 µg/mL,100 µg/mL,700 µg/mL,110 µg/mL,100 µg/mL,no form change,"Final Form ([3]; residual solid by XRPD, H2O (pH 6.5), 1 hr): A + C"
"CN1C(=O)[C@@H](NC(=O)c2nnc(Cc3ccccc3)[nH]2)COc2cccnc21 [Form D, (S)-5-benzyl-N-(5-methyl-4-oxo-2,3,4,5-tetrahydropyrido [3,2-b][1,4]oxazepin-3-yl)-4H-1,2,4-triazole-3-carboxamide]",–,–,–,–,–,–,–,–,–,–,–,–,–,–,–,–,–,–,–,converted to Form C,–
"CN1C(=O)[C@@H](NC(=O)c2nnc(Cc3ccccc3)[nH]2)COc2cccnc21 [Form E, (S)-5-benzyl-N-(5-methyl-4-oxo-2,3,4,5-tetrahydropyrido [3,2-b][1,4]oxazepin-3-yl)-4H-1,2,4-triazole-3-carboxamide]",–,–,–,–,–,–,–,–,–,–,–,–,–,–,–,–,–,–,–,–,Form change on exposure to ambient condition [7]: converted to Form C
